Measurements published in patent US20230248833A1, “COMPOUND HAVING BTK KINASE DEGRADING ACTIVITY, AND PREPARATION METHOD AND PHARMACEUTICAL USE THEREFOR” (SICHUAN HAISCO PHARMACEUTICAL CO., LTD., priority 2020, published 2023).

How the values were obtained:
[1] = system: Mino cells; test: Inhibition of cell proliferation, Mino cells (Cell Viability Assay, 72 h); assay type: cell-based, human; details: for IC50: Homo sapiens, MINO, 72 h; for Mino Max inhi. %: inhibition rate at the highest concentration of the compound
Protocol: (§1) SU-DHL-4, Mino, and SU-DHL-6 cells, in the culture medium of RPMI1640+10% FBS, were cultured in an incubator at 37° C. under 5% CO2. Cells were plated in a 96-well plate. Specifically, SU-DHL-4 cells were at 20000/well, Mino and SU-DHL-6 cells were at 5000/well, with 90 μL/well. 10 μL of the compounds at different concentrations were added to each well. There were 3 replicate wells for each concentration, and the last column, added with DMSO, was used as a vehicle control group. The cultures were continued for 72 hours at 37° C. under 5% CO2. After 72 hours, 100 μL of detection reagent (Cell Viability Assay, Promega, G7573) was added to each well, and the cultures were uniformly mixed for 2 minutes, and incubated at room temperature for 10 minutes. The […] signal value was measured with a microplate reader (PHERAstar FSX). The IC50 value of the compound on cell proliferation inhibition was calculated using origin9.2 software, and the inhibition rate at the highest concentration of the compound (Max inhi.%) was calculated according to formula (1).
(§2) Max inhi.%=(1−T72administration/T72vehicle)×100 Formula (1).

[2] = Pharmacokinetic experiment in rats; assay type: in vivo; details: male, SD, rat, po, plasma, i.g. (20 mg/kg); for AUC(0-t): single dose
Protocol: Experimental objective: In this experiment, a single dose of each test compound was administered to SD rats intravenously and intragastrically, the concentrations of the test compound in plasma of rats were measured, and the pharmacokinetic characteristics and bioavailability of the test compound in rats were evaluated.
Experimental animals: Male SD rats, about 200 g, 6-8 weeks old, 6 rats/compound. Rats were purchased from Hunan SJA Laboratory Animal Co., Ltd, with the laboratory animal production license number of SCXK (Xiang) 2019-004.
Experimental method: On the day of the experiment, 6 SD rats were randomly grouped according to their body weight. The animals were fasted with water available for 12 to 14 hours one day before the administration of a test compound, and were fed 4 hours after the administration.
Before and after the administration, […] of blood was taken from the orbit of the rats under isoflurane anesthesia, and placed in an EDTAK2 centrifuge tube. Centrifugation was carried out at 5000 rpm at 4° C. for 10 min, and the plasma was collected.
Time points for sample collection in G1&G2 groups comprise
Before analysis and detection, all samples were stored at −80° C. The samples were detected by HPLC-MS/MS.

[3] = system: SU-DHL-6 cells; test: Inhibition of cell proliferation, SU-DHL-6 cells (Cell Viability Assay, 72 h); assay type: cell-based, human; details: Homo sapiens, SU-DHL-6, 72 h
Protocol: as §1, §2

| SMILES | IC50 [1] [nM] | Mino Max inhi. % [1] [%] | further results |
| --- | --- | --- | --- |
| Nc1ncnc2c1c(-c1ccc(Oc3ccccc3)cc1)nn2C1CC2(CCN(C3CN(C4CN(c5ccc6c(c5)C(=O)N(C5CCC(=O)NC5=O)C6=O)C4)C3)CC2)C1 (stereo not drawn) [Compound 65, 5-(3-(2-(4-amino-3-(4-phenoxyphenyl)-1H-pyrazolo[3,4-d]pyrimidin-1-yl)-7-azaspiro[3.5]nonan-7-yl)-[1,3′-biazetidin]-1′-yl)-2-(2,6-dioxopiperidin-3-yl) isoindoline-1,3-dione] | 14 |  |  |
| Nc1ncnc2c1c(-c1ccc(Oc3ccccc3)cc1)nn2C1CC2(CCN(C3CC4(CCN(c5ccc6c(c5)C(=O)N(C5CCC(=O)NC5=O)C6=O)CC4)C3)CC2)C1 (stereo not drawn) [Compound 66, 5-(2′-(4-amino-3-(4-phenoxyphenyl)-1H-pyrazolo[3,4-d]pyrimidin-1-yl)-7,7′-diaza[2,7′-bispiro[3.5]nonan]-7-yl)-2-(2,6-dioxopiperidin-3-yl)isoindoline-1,3-dione] | 27 |  |  |
| Nc1ncnc2c1c(-c1ccc(Oc3ccccc3)cc1)nn2C1CCN(C2(C(F)(F)F)CCN(C3CN(c4ccc5c(c4)C(=O)N(C4CCC(=O)NC4=O)C5=O)C3)CC2)CC1 (stereo not drawn) [Compound 70, 5-(3-(4-(4-amino-3-(4-phenoxyphenyl)-1H-pyrazolo[3,4-d]pyrimidin-1-yl)-4′-(trifluoromethyl)-[1,4′-bipiperidin]-1′-yl)azetidin-1-yl)-2-(2,6-dioxopiperidin-3-yl)isoindoline-1,3-dione] | 101 |  |  |
| Nc1ncnc2c1c(-c1ccc(Oc3ccccc3)cc1)nn2C1CCN(C2CN(C3CN(C(=O)CC45CC6CC(CC(C6)C4)C5)C3)C2)CC1 [Compound 72, 2-(1-adamantyl)-1-[3-[3-[4-[4-amino-3-(4-phenoxyphenyl)pyrazolo[3,4-d]pyrimidin-1-yl]-1-piperidyl]azetidin-1-yl]azetidin-1-yl]ethanone] | 10 to 1000 | 88.5 |  |
| Nc1ncnc2c1c(-c1ccc(Oc3ccccc3)cc1)nn2C1CCN(C2CCN(C3CN(C(=O)CC45CC6CC(CC(C6)C4)C5)C3)CC2)CC1 [Compound 73, 2-(1-adamantyl)-1-(3-(4-(4-amino-3-(4-phenoxyphenyl)pyrazolo[3,4-d]pyrimidin-1-yl)-[1,4′-bipiperidin]-1′-yl)azetidin-1-yl)ethan-1-one] |  | 99.8 |  |
| Nc1ncnc2c1c(-c1ccc(Oc3ccccc3)cc1)nn2C1CCN(C2CN(C(=O)CC34CC5CC(CC(C5)C3)C4)C2)CC1 [Compound 74, 2-((3r,5r,7r)-adamantan-1-yl)-1-(3-(4-(4-amino-3-(4-phenoxyphenyl)-1H-pyrazolo[3,4-d]pyrimidin-1-yl)piperidin-1-yl)azetidin-1-yl)ethanone] |  | 88.3 |  |
| Nc1ncnc2c1c(-c1ccc(Oc3ccccc3)cc1)nn2C1CCC2(CC1)CN(C1CN(c3ccc4c(c3)C(=O)N(C3CCC(=O)NC3=O)C4=O)C1)C2 (stereo not drawn) [Compound 75, 5-(3-(7-(4-amino-3-(4-phenoxyphenyl)-1H-pyrazolo[3,4-d]pyrimidin-1-yl)-2-azaspiro[3.5]nonan-2-yl)azetidin-1-yl)-2-(2,6-dioxopiperidin-3-yl)isoindoline-1,3-dione] | 37 |  |  |
| Nc1ncnc2c1c(-c1ccc(Oc3ccccc3)cc1)nn2C1CCN(C2CN(C3CN(c4ccc5c(n4)CN(C4CCC(=O)NC4=O)C5=O)C3)C2)CC1 (stereo not drawn) [Compound 76, 3-(2-(3-(4-(4-amino-3-(4-phenoxyphenyl)-1H-pyrazolo[3,4-d]pyrimidin-1-yl)piperidin-1-yl)-[1,3′-biazetidin]-1′-yl)-5-oxo-5,7-dihydro-6H-pyrrolo[3,4-b]pyridin-6-yl)piperidine-2,6-dione] | 141 |  |  |
| NC(=O)c1c(-c2ccc(Oc3ccccc3)cc2)nn2c1NCC[C@H]2C1CCN(C2CN(CC3CN(c4ccc5c(c4)C(=O)N(C4CCC(=O)NC4=O)C5=O)C3)C2)CC1 (stereo partly drawn) [Compound 80, (7S)-7-(1-(1-((1-(2-(2,6-dioxopiperidin-3-yl)-1,3-dioxoisoindolin-5-yl)azetidin-3-yl)methyl)azetidin-3-yl)piperidin-4-yl)-2-(4-phenoxyphenyl)-4,5,6,7-tetrahydropyrazolo[1,5-a]pyrimidine-3-carboxamide] |  | 99.1 |  |
| NC(=O)c1c(-c2ccc(Oc3ccccc3)cc2)nn2c1NCC[C@H]2C1CCN(C2CCN(CC3CCN(c4ccc5c(c4)C(=O)N(C4CCC(=O)NC4=O)C5=O)CC3)CC2)CC1 (stereo partly drawn) [Compound 81, (7S)-7-(1′-((1-(2-(2,6-dioxopiperidin-3-yl)-1,3-dioxoisoindolin-5-yl)piperidin-4-yl)methyl)-[1,4′-bipiperidin]-4-yl)-2-(4-phenoxyphenyl)-4,5,6,7-tetrahydropyrazolo[1,5-a]pyrimidine-3-carboxamide] |  | 99.9 |  |
| NC(=O)c1c(-c2ccc(Oc3ccccc3)cc2)nn2c1NCC[C@H]2C1CCN(C2CCN(CC3CN(c4ccc5c(c4)C(=O)N(C4CCC(=O)NC4=O)C5=O)C3)CC2)CC1 (stereo partly drawn) [Compound 82, (7S)-7-(1′-((1-(2-(2,6-dioxopiperidin-3-yl)-1,3-dioxoisoindolin-5-yl)azetidin-3-yl)methyl)-[1,4′-bipiperidin]-4-yl)-2-(4-phenoxyphenyl)-4,5,6,7-tetrahydropyrazolo [1,5-a]pyrimidine-3-carboxamide] |  | 99.9 |  |
| NC(=O)c1c(-c2ccc(Oc3ccccc3)cc2)nn2c1NCC[C@H]2C1CCN(CC2CCN(c3ccc4c(c3)C(=O)N(C3CCC(=O)NC3=O)C4=O)CC2)CC1 (stereo partly drawn) [Compound 83, (7S)-7-(1-((1-(2-(2,6-dioxopiperidin-3-yl)-1,3-dioxoisoindolin-5-yl)piperidin-4-yl)methyl)piperidin-4-yl)-2-(4-phenoxyphenyl)-4,5,6,7-tetrahydropyrazolo[1,5-a]pyrimidine-3-carboxamide] |  | 99.7 |  |
| Nc1ncnc2c1c(-c1ccc(Oc3ccccc3)cc1)nn2C1CCN(C2CCN(CC3CN(c4ccc5c(c4)C(=O)N(C4CCC(=O)NC4=O)C5=O)C3)CC2)CC1 (stereo not drawn) [Compound 84, 5-(3-((4-(4-amino-3-(4-phenoxyphenyl)-1H-pyrazolo[3,4-d]pyrimidin-1-yl)-[1,4′-bipiperidin]-1′-yl)methyl)azetidin-1-yl)-2-(2,6-dioxopiperidin-3-yl)isoindoline-1,3-dione] | 32 |  | AUC(0-t) [2]: 176 ± 57 ng·h/mL |
| Nc1ncnc2c1c(-c1ccc(Oc3ccccc3)cc1)nn2C1CCN(C2CCN(CC3CCN(c4ccc5c(c4)C(=O)N(C4CCC(=O)NC4=O)C5=O)CC3)CC2)CC1 (stereo not drawn) [Compound 86, 5-(4-((4-(4-amino-3-(4-phenoxyphenyl)-1H-pyrazolo[3,4-d]pyrimidin-1-yl)-[1,4′-bipiperidin]-1′-yl)methyl)piperidin-1-yl)-2-(2,6-dioxopiperidin-3-yl)isoindoline-1,3-dione] | 42 |  | AUC(0-t) [2]: 247 ± 73 ng·h/mL |
| Nc1ncnc2c1c(-c1ccc(Oc3ccccc3)c(F)c1)nn2C1CCN(C2CN(C3CN(c4ccc5c(c4)C(=O)N(C4CCC(=O)NC4=O)C5=O)C3)C2)CC1 (stereo not drawn) [Compound 95, 5-(3-(4-(4-amino-3-(3-fluoro-4-phenoxyphenyl)-1H-pyrazolo[3,4-d]pyrimidin-1-yl)piperidin-1-yl)-[1,3′-biazetidin]-1′-yl)-2-(2,6-dioxopiperidin-3-yl)isoindoline-1,3-dione] | 100 |  | bioavailability ([2]; bioavailability): 12.3 ± 2.1%; AUC(0-t) [2]: 4270 ± 739 ng·h/mL |
| Nc1ncnc2c1c(-c1ccc(Oc3ccccc3)c(F)c1)nn2C1CCN(C2CCN(C3CN(c4ccc5c(c4)C(=O)N(C4CCC(=O)NC4=O)C5=O)C3)CC2)CC1 (stereo not drawn) [Compound 96, 5-(3-(4-(4-amino-3-(3-fluoro-4-phenoxyphenyl)-1H-pyrazolo[3,4-d]pyrimidin-1-yl)-[1,4′-bipiperidin]-1′-yl)azetidin-1-yl)-2-(2,6-dioxopiperidin-3-yl)isoindoline-1,3-dione] | 501 |  |  |
| Nc1ncnc2c1c(-c1ccc(Oc3ccccc3)cc1)nn2C1CCN(C2CN(CC3CN(c4cccc5c4C(=O)N(C4CCC(=O)NC4=O)C5=O)C3)C2)CC1 (stereo not drawn) [Compound 105, 4-(3-((3-(4-(4-amino-3-(4-phenoxyphenyl)-1H-pyrazolo[3,4-d]pyrimidin-1-yl)piperidin-1-yl)azetidin-1-yl)methyl)azetidin-1-yl)-2-(2,6-dioxopiperidin-3-yl)isoindoline-1,3-dione] | 208 |  | IC50 [3]: 331 nM |
| Nc1ncnc2c1c(-c1ccc(Oc3ccccc3)cc1)nn2C1CCN(C2CN(CC3CN(c4ccc5c(c4)CN(C4CCC(=O)NC4=O)C5=O)C3)C2)CC1 (stereo not drawn) [Compound 107, 3-(5-(3-((3-(4-(4-amino-3-(4-phenoxyphenyl)-1H-pyrazolo[3,4-d]pyrimidin-1-yl)piperidin-1-yl)azetidin-1-yl)methyl)azetidin-1-yl)-1-oxoisoindolin-2-yl)piperidine-2,6-dione] |  |  | AUC(0-t) [2]: 610 ± 131 ng·h/mL |
